How the values were obtained:
Type in all cases: physicochemical
[1] = Competitive slurry experiments of Form S1 and Form S4; conditions: IPA, approximately equal amounts of Form S1 and Form S4
Description: To verify the transition temperature between Form S1 and Form S4 of Compound (1) calculated from the DSC data, competitive slurry experiments of Form S1 and Form S4 were performed.
In each experiment, slurries were generated using approximately equal amounts of Form S1 and Form S4. The forms were suspended in 0.3 mL of solvent in a 1.5 mL glass vial. […] The remaining solids were isolated via centrifugation (10000 rpm, 3 min) and analyzed using the XPRD analysis method described above.

TGA analysis = conditions: up to 185° C., heating rate 10° C./min
Description: (§1) TGA data were collected using a TA Q500 TGA from TA Instruments, and DSC was conducted using a TA Q2000 DSC from TA Instruments. The TGA was calibrated with a nickel reference standard and the DSC was calibrated with an indium reference standard.

[2] = Dynamic vapor sorption (DVS) analysis; conditions: for hygroscopicity by DVS / mass uptake by DVS / mass uptake by DVS expressed as equivalents of water: 25° C.; for hygroscopicity by DVS: up to 90% RH; for change of the XRPD pattern of the sample following the DVS analysis: after two sorption/desorption cycles at 25° C.; for mass uptake by DVS / mass uptake by DVS expressed as equivalents of water: at 90% RH
Description: Approximately 10-20 mg of sample was placed into a mesh vapor sorption balance pan and loaded into a DVS Intrinsic/Advantage dynamic vapor sorption balance by Surface Measurement Systems. The sample was subjected to a ramping profile from 40-90% relative humidity (RH) at 10% increments, maintaining the sample at each step until a stable weight had been achieved (dm/dt 0.004%, minimum step length 30 minutes, maximum step length 500 minutes) at 25° C. After completion of the sorption cycle, the sample was dried using the same procedure to 0% RH and then a second sorption cycle back to 40% RH. Two cycles were performed. The weight change during the sorption/desorption cycles were plotted, allowing for the hygroscopic nature of the sample to be determined. XRPD analysis was then carried out on any solid retained. The microbalance was calibrated monthly using a certified calibration weight and the relative humidity at 25° C. was calibrated against deliquescence point of LiCl, MgCl and NaCl. Data were not corrected for the initial water content of the sample, and data were shown according to the dry mass of the sample at 0% RH.

[3] = DSC analysis (form conversion under heating); conditions: TGA/DSC heating
Description: as §1

Row | SMILES | Results: solid form remaining after competitive slurry (XRPD) ([1]; 80 ° C., time point not given) | weight loss on the TGA curve (TGA analysis) [%] | hygroscopicity by DVS [2] | change of the XRPD pattern of the sample following the DVS analysis [2] | mass uptake by DVS [2] | mass uptake by DVS expressed as equivalents of water [2] [eq. water] | form conversion under heating conditions (thermal analyses) [3] | Results: solid form remaining after competitive slurry (XRPD) ([1]; 60 ° C., time point 1 hr) | Results: solid form remaining after competitive slurry (XRPD) ([1]; 70 ° C., time point 1 hr)
1 | COC[C@@]1(O)CC[C@H]2[C@@H](CC[C@@H]3[C@@H]2CC[C@]2(C)[C@@H](C(=O)Cn4nnc(C)n4)CC[C@@H]32)C1 [Form S1] | converted to Form S4 | 0.1 | substantially non-hygroscopic | No change | ca. 0.6 wt. % | 0.14 | converts to Form S4 | – | –
2 | COC[C@@]1(O)CC[C@H]2[C@@H](CC[C@@H]3[C@@H]2CC[C@]2(C)[C@@H](C(=O)Cn4nnc(C)n4)CC[C@@H]32)C1 [Form S4] | – | 0.1 | non-hygroscopic | No change | ca. 0.12 wt. % | 0.02 | – | converted to Form S1 | converted to Form S1
3 | COC[C@@]1(O)CC[C@H]2[C@@H](CC[C@@H]3[C@@H]2CC[C@]2(C)[C@@H](C(=O)Cn4nnc(C)n4)CC[C@@H]32)C1 [Form S1 and Form S4] | Form S4 | – | – | – | – | – | – | Form S1 | Form S1
